Measured values from US10576082B2, “ErbB2 regulates autophagic flux to modulate the proteostasis of APP-CTFs in alzheimer's disease” (Academia Sinica, priority 2016, dated 2020).

Legend:
[1] = test system: APPswe/PS1ΔE9 double transgenic mice; assay: Morris water maze in APPswe/PS1ΔE9 transgenic mice; type: in vivo, mouse; conditions: 5 mg/kg daily oral
[2] = test system: zebrafish embryos expressing GFP-tagged C99; assay: C99-expressing zebrafish model of AD, Western blotting of embryo lysates; type: in vivo; conditions: treated from 48 hpf to 72 hpf at 28° C.
Protocol: (§1) (A) IMR32 cells overexpressing C99-YFP were grown with 2 ml fresh culture medium in 6-well plates, and treated with 1 μM CL-387,785 or DAPT at 37° C. for 24 h. The cell extracts were analyzed by Western blotting. (B) Conditional media were harvested and processed for determination of secreted Aβ40 using a colorimetric Aβ40-specific ELISA kit. (C) C99-YFP-expressing IMR32 cells (160,000 cells/well) were seeded onto 6-well plates and cultured at 37° C. for 24 h, and infected with ErbB1- or ErbB2-targeting shRNA lentivirus for an additional 48 h. Infection mixtures were replaced with 2 ml fresh culture medium, and infected cells were then incubated at 37° C. for an additional 24 h. The cell extracts were analyzed by Western blotting with anti-GFP antibody. (D) The conditioned media were harvested and processed for determination of secreted Aβ40. Data are the mean±SD from three independent experiments, and were analyzed by Student's t-tests. * p<0.05. (E) Schematic presentation of the DNA construct encoding recombinant C99-GFP-P2A-GFP. CMV, human cytomegalovirus promoter; CI, chimeric intron; P2A, porcine teschovirus 2A peptide. […]
Overexpression of APP-C99 zebrafish. […] Clarified lysates containing equal amounts of protein were analyzed by Western blotting.

[3] = test system: APPswe/PS1ΔE9 double transgenic mice; assay: Western blotting of brain homogenates of treated APPswe/PS1ΔE9 mice; type: in vivo, mouse; conditions: 5 mg/kg daily oral, 20 days
[4] = test system: IMR32 neuroblastoma cells overexpressing C99-YFP; assay: Secreted Aβ40 ELISA, conditional media of IMR32 cells overexpressing C99-YFP; type: cell-based, human; conditions: compound 1 μM, 37° C., 24 h
Protocol: as §1, with “C99-GFP-P2A-GFP.” for “C99-GFP-P2A-GFP. CMV, human cytomegalovirus promoter; CI, chimeric intron; P2A, porcine teschovirus 2A peptide.”
Cell-based γ-secretase assays for the nuclear function of AICD or NICD. […] Cellular luminescence was determined by the addition of Steady-Glo Luciferase Assay reagents (PROMEGA™), according to the manufacturer's instructions. […] The level of secreted Aβ40 was quantified using a human Aβ40 sandwich ELISA kit (Invitrogen) according to the manufacturer's instructions.

[5] = test system: APPswe/PS1ΔE9 double transgenic mice; assay: Co-immunoprecipitation (anti-BECN1) of brain lysates of treated APPswe/PS1ΔE9 mice; type: in vivo, mouse

SMILES: CC#CC(=O)Nc1ccc2ncnc(Nc3cccc(Br)c3)c2c1 [CL-387,785, N-[4-[(3-bromophenyl)amino]-6-quinazolinyl]-2-butynamide]
- probe test with invisible platform (cognitive function versus vehicle-treated AD mice) ([1]; after 3 weeks of daily dosing (day 21)): dramatic cognitive improvement
- spatial learning (escape latency, Morris water maze) ([1]; after 16 days of daily dosing): significantly enhanced spatial learning
- level of AICD in embryos [2]: concomitant clearance
- level of C99 in embryos [2]: concomitant clearance
- brain level of APP-CTF [3]: significant reduction
- brain level of ErbB2 [3]: significant reduction
- brain level of p62 [3]: significant reduction
- brain level of total APP [3]: steady level
- brain ratio of LC3-II to LC3-I [3]: increase
- level of secreted Aβ40 [4]: significantly reduced
- phosphorylation of EGFR(ErbB1) in brain ([5]; 5 mg/kg daily oral, 20 days): inhibited
- interaction between ErbB2 with Beclin-1 in brain ([5]; 5 mg/kg daily oral, 20 days, co-immunoprecipitation): drastically suppressed
- formation of the Beclin1-Vps34-Vps15 complex ([5]; summary statement for the compound (FIG. 7)): rescues the formation
